Here are results for 19 compounds from patent US12365692B2, “6-hydroxy-8-oxatricyclo[3.2.1.02,4]octane-2-carboxamide derivatives for inducing chondrogenesis for treating joint damage” (NOVARTIS AG, priority 2018, dated 2025).

For this experiment, the system named is ALP in NHAC (normal human articular chondrocytes). Description: Alkaline Phosphatase (ALP) activity assay: ALP staining and quantitation in NHACs (prevention of chondrocyte hypertrophy). The experiment is classed as cell-based. The note with it: Chondrocyte, 288 h, human IL-1 beta 10 ng/mL, 12 days; for IC50: Fast Blue RR staining, high content imaging; for Emax: read-out: ALP in NHAC (% Efficacy). The procedure:
The compounds of the present invention were evaluated in the Alkaline Phosphatase (ALP) activity assay to determine the ability of the compounds to prevent chondrocyte hypertrophy in normal human articular chondrocytes (NHACs).
Normal human articular chondrocytes (NHACs) were purchased from PromoCell (Heidelberg, Germany) and grown in Chondrocyte Growth Medium (CGM; Lonza, Walkersville, Md.).
NHACs were expanded in Chondrocyte Growth Medium (CGM) from Lonza until they reached a 60-80% confluency. To initiate differentiation, 7,500 cells were plated/well with indicated test compound dose in 384-well Cell Carrier Ultra plates (Perkin Elmer) with DMEM (SH30022—HyClone) containing 10% FBS (35-015-CV—Corning), 1% Pen/Strep antibiotics (SV30010—HyClone), and 1% Normocin (50 mg/mL—InvivoGen). Cells with test compounds were incubated at 37° C., 5% CO2 for 5 hours and then added human IL-1 beta (AF-200-1B—Peprotech) to each well at a final concentration of 10 ng/mL and incubated at 37° C., 5% CO2 for 12 days.
To detect the presence of hypertrophic cells, NHACs were fixed with 4% paraformaldehyde and Hoechst 33342 (Invitrogen) dye for 30 minutes, rinsed in PBS, then stained with Fast Blue RR Salt (F0500—Sigma) with Naphthol AS-MX Phosphate Alkaline Solution, 0.25% (855—Sigma-Aldrich).
The staining was imaged by fluoresecent microscopy, using the 561 nm wavelength, and/or quantified by high content imaging with the ImageXpress Confocal (Molecular Devices, Sunnyvale, CA). Data analyses were performed with a customized multiwavelength cell-scoring application The activity of the compounds of the present invention in the ALP assay is summarized in Table 2.

A word on the IC50: it is the concentration at which inhibition is half-maximal. A low value points to greater potency.

A value given as a limit tells only on which side of the number the result lay.

For the compound `Cn1cc([C@@]23C[C@]2(C(=O)Nc2cc(C(F)(F)F)cc(C4CC4)n2)[C@H]2C[C@H](O)[C@@H]3O2)c(C(F)(F)F)n1` (racemic) [Example 46, rac-(1R,2R,4S,5R,6S)—N-(6-cyclopropyl-4-(trifluoromethyl)pyridin-2-yl)-6-hydroxy-4-(1-methyl-3-(trifluoromethyl)-1H-pyrazol-4-yl)-8-oxatricyclo[3.2.1.02,4]octane-2-carboxamide], the IC50 came to 27 µM and the Emax amounted to 82%.
Turning to `CCOc1ccc(NC(=O)[C@]23C[C@@]2(c2cn(C)nc2C(F)(F)F)[C@H]2O[C@@H]3C[C@@H]2O)cc1C(F)(F)F` (racemic) [Example 65, rac-(1R,2R,4S,5R,6S)—N-(4-ethoxy-3-(trifluoromethyl)phenyl)-6-hydroxy-4-(1-methyl-3-(trifluoromethyl)-1H-pyrazol-4-yl)-8-oxatricyclo[3.2.1.02,4]octane-2-carboxamide], it took 12 µM to reach half-maximal inhibition (IC50) and the Emax is 84%.
For the compound `Cc1cc(NC(=O)[C@]23C[C@@]2(c2ccnc(F)c2)[C@H]2O[C@@H]3C[C@@H]2O)cc(C(F)(F)F)c1` (racemic) [Example 12, rac-(1R,2R,4S,5R,6S)-4-(2-fluoropyridin-4-yl)-6-hydroxy-N-(3-methyl-5-(trifluoromethyl)phenyl)-8-oxatricyclo[3.2.1.02,4]octane-2-carboxamide], the IC50 is > 30 µM and the Emax amounted to 21%.
Take `COc1ccc(C(F)(F)F)cc1NC(=O)[C@]12C[C@@]1(c1cn(C)nc1C(F)(F)F)[C@H]1O[C@@H]2C[C@@H]1O` (racemic) [Example 62, rac-(1R,2R,4S,5R,6S)-6-hydroxy-N-(2-methoxy-5-(trifluoromethyl)phenyl)-4-(1-methyl-3-(trifluoromethyl)-1H-pyrazol-4-yl)-8-oxatricyclo[3.2.1.02,4]octane-2-carboxamide]: the 50% inhibitory concentration (IC50) is > 30 µM and the Emax was found to be 26%.
In the case of `COc1cc([C@@]23C[C@]2(C(=O)Nc2cc(Cl)cc(C(F)(F)F)c2)[C@H]2C[C@H](O)[C@@H]3O2)ccn1` (racemic) [Example 71, rac-(1R,2R,4S,5R,6S)—N-(3-chloro-5-(trifluoromethyl)phenyl)-6-hydroxy-4-(2-methoxypyridin-4-yl)-8-oxatricyclo[3.2.1.02,4]octane-2-carboxamide], the IC50 is > 30 µM and the Emax was 9%.
With `COc1cc([C@@]23C[C@]2(C(=O)Nc2cc(C(F)(F)F)ccc2C#N)[C@H]2C[C@H](O)[C@@H]3O2)ccn1` (racemic) [Example 39, rac-(1R,2R,4S,5R,6S)—N-(2-cyano-5-(trifluoromethyl)phenyl)-6-hydroxy-4-(2-methoxypyridin-4-yl)-8-oxatricyclo[3.2.1.02,4]octane-2-carboxamide], the IC50 turned out to be 0.081 µM and the Emax came to 92%.
For the compound `O=C(Nc1ccc(Cl)c(C(F)(F)F)c1)[C@]12C[C@@]1(c1ccnc(F)c1)[C@H]1O[C@@H]2C[C@@H]1O` (racemic) [Example 18, rac-(1R,2R,4S,5R,6S)—N-(4-chloro-3-(trifluoromethyl)phenyl)-4-(2-fluoropyridin-4-yl)-6-hydroxy-8-oxatricyclo[3.2.1.02,4]octane-2-carboxamide], the IC50 was > 30 µM and the Emax came to 25%.
As to `COc1cc([C@@]23C[C@]2(C(=O)Nc2cc(C(F)(F)F)cc(C(F)(F)F)c2)[C@H]2C[C@H](O)[C@@H]3O2)ccn1` (racemic) [Example 37, rac-(1R,2R,4S,5R,6S)—N-(3,5-bis(trifluoromethyl)phenyl)-6-hydroxy-4-(2-methoxypyridin-4-yl)-8-oxatricyclo[3.2.1.02,4]octane-2-carboxamide], the half-maximal inhibitory concentration (IC50) was > 30 µM and the Emax worked out at 0%.
Consider `COc1cc([C@@]23C[C@]2(C(=O)Nc2ccc(F)c(C(F)(F)F)c2)[C@H]2C[C@H](O)[C@@H]3O2)ccn1` (racemic) [Example 32, rac-(1R,2R,4S,5R,6S)—N-(4-fluoro-3-(trifluoromethyl)phenyl)-6-hydroxy-4-(2-methoxypyridin-4-yl)-8-oxatricyclo[3.2.1.02,4]octane-2-carboxamide], for which the IC50 was > 30 µM and the Emax came to 4%.
With `O=C(Nc1cc(C(F)(F)F)ccc1F)[C@]12C[C@@]1(c1ccnc(F)c1)[C@H]1O[C@@H]2C[C@@H]1O` (racemic) [Example 17, rac-(1R,2R,4S,5R,6S)—N-(2-fluoro-5-(trifluoromethyl)phenyl)-4-(2-fluoropyridin-4-yl)-6-hydroxy-8-oxatricyclo[3.2.1.02,4]octane-2-carboxamide], the IC50 was > 30 µM and the Emax amounted to 17%.
As to `N#Cc1ccc(NC(=O)[C@]23C[C@@]2(c2cccc(C(F)(F)F)c2)[C@H]2O[C@@H]3C[C@@H]2O)cc1C(F)(F)F` (racemic) [Example 79, rac-(1R,2R,4S,5R,6S)—N-(4-cyano-3-(trifluoromethyl)phenyl)-6-hydroxy-4-(3-(trifluoromethyl)phenyl)-8-oxatricyclo[3.2.1.02,4]octane-2-carboxamide], the IC50 is 9.9 µM and the Emax turned out to be 78%.
On to `N#Cc1ccc(C(F)(F)F)cc1NC(=O)[C@]12C[C@@]1(c1ccnc(F)c1)[C@H]1O[C@@H]2C[C@@H]1O` (racemic) [Example 78, rac-(1R,2R,4S,5R,6S)—N-(2-cyano-5-(trifluoromethyl)phenyl)-4-(2-fluoropyridin-4-yl)-6-hydroxy-8-oxatricyclo[3.2.1.02,4]octane-2-carboxamide], for which the IC50 is > 30 µM and the Emax is 40%.
Take `O=C(Nc1cc(Cl)cc(C(F)(F)F)c1)[C@]12C[C@@]1(c1ccnc(F)c1)[C@H]1O[C@@H]2C[C@@H]1O` (racemic) [Example 19, rac-(1R,2R,4S,5R,6S)—N-(3-chloro-5-(trifluoromethyl)phenyl)-4-(2-fluoropyridin-4-yl)-6-hydroxy-8-oxatricyclo[3.2.1.02,4]octane-2-carboxamide]: the IC50 is > 30 µM and the Emax was found to be 0%.
As for `N#Cc1cc(NC(=O)[C@]23C[C@@]2(c2ccnc(F)c2)[C@H]2O[C@@H]3C[C@@H]2O)cc(C(F)(F)F)c1` (racemic) [Example 77, rac-(1R,2R,4S,5R,6S)—N-(3-cyano-5-(trifluoromethyl)phenyl)-4-(2-fluoropyridin-4-yl)-6-hydroxy-8-oxatricyclo[3.2.1.02,4]octane-2-carboxamide], the concentration for half-maximal inhibition (IC50) was > 30 µM and the Emax was found to be 29%.
Consider `Cn1cc([C@@]23C[C@]2(C(=O)Nc2cc(C(F)(F)F)c(Cl)cn2)[C@H]2C[C@H](O)[C@@H]3O2)c(C(F)(F)F)n1` (racemic) [Example 45, rac-(1R,2R,4S,5R,6S)—N-(5-chloro-4-(trifluoromethyl)pyridin-2-yl)-6-hydroxy-4-(1-methyl-3-(trifluoromethyl)-1H-pyrazol-4-yl)-8-oxatricyclo[3.2.1.02,4]octane-2-carboxamide], for which the half-inhibitory concentration (IC50) is > 30 µM and the Emax turned out to be 46%.
On to `Cc1c(NC(=O)[C@]23C[C@@]2(c2cn(C)nc2C(F)(F)F)[C@H]2O[C@@H]3C[C@@H]2O)cccc1C(F)(F)F` (racemic) [Example 50, rac-(1R,2R,4S,5R,6S)-6-hydroxy-4-(1-methyl-3-(trifluoromethyl)-1H-pyrazol-4-yl)-N-(2-methyl-3-(trifluoromethyl)phenyl)-8-oxatricyclo[3.2.1.02,4]octane-2-carboxamide], for which the IC50 was > 30 µM and the Emax is 33%.
As for `COc1cc(NC(=O)[C@]23C[C@@]2(c2ccnc(OC)c2)[C@H]2O[C@@H]3C[C@@H]2O)cc(C(F)(F)F)c1` (racemic) [Example 35, rac-(1R,2R,4S,5R,6S)-6-hydroxy-N-(3-methoxy-5-(trifluoromethyl)phenyl)-4-(2-methoxypyridin-4-yl)-8-oxatricyclo[3.2.1.02,4]octane-2-carboxamide], the half-inhibitory concentration (IC50) is > 30 µM and the Emax amounted to 0%.
As for `COc1cc([C@@]23C[C@]2(C(=O)Nc2cc(C(F)(F)F)c(Cl)cn2)[C@H]2C[C@H](O)[C@@H]3O2)ccn1` (racemic) [Example 22, rac-(1R,2R,4S,5R,6S)—N-(5-chloro-4-(trifluoromethyl)pyridin-2-yl)-6-hydroxy-4-(2-methoxypyridin-4-yl)-8-oxatricyclo[3.2.1.02,4]octane-2-carboxamide], the concentration for half-maximal inhibition (IC50) is > 30 µM and the Emax amounted to 27%.
For `O=C(Nc1ccc(F)c(C(F)(F)F)c1)[C@]12C[C@@]1(c1ccnc(F)c1)[C@H]1O[C@@H]2C[C@@H]1O` (racemic) [Example 15, rac-(1R,2R,4S,5R,6S)—N-(4-fluoro-3-(trifluoromethyl)phenyl)-4-(2-fluoropyridin-4-yl)-6-hydroxy-8-oxatricyclo[3.2.1.02,4]octane-2-carboxamide], in that order: > 30 µM and 5%.
